Source: ChEMBL document CHEMBL4364344, “Design, synthesis and evaluation of activity and pharmacokinetic profile of new derivatives of xanthone and piperazine in the central nervous system” (Bioorg Med Chem Lett, 2019)
Each block holds one compound with its values, some of them ahead of it. The source made the active and inactive calls. No cut-off for these calls is given here.

What was measured:
[1] = target: Serotonin 2 (5-HT2) receptor (Rattus norvegicus) (UniProt P30994+P08909+P14842); test: Displacement of [3H]ketanserin from 5-HT2 receptor in Wistar rat brain cortex membrane at 10 uM after 40 mins by scintillation counting analysis relative to control; assay type: cell membranes
Sequence of Serotonin 2 (5-HT2) receptor (Rattus norvegicus) (P08909 whole entry, looked up): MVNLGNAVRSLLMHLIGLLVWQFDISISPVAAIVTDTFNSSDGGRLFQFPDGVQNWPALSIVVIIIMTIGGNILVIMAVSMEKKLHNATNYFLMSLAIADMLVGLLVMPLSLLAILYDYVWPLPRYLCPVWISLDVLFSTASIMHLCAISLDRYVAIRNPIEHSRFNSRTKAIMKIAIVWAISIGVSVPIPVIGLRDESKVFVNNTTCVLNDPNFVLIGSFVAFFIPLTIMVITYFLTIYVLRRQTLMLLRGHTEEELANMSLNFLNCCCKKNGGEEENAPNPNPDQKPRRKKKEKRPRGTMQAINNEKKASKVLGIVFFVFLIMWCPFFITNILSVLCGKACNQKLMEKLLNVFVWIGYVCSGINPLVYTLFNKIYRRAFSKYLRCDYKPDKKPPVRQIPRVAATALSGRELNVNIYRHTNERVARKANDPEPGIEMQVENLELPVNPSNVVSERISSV
Sequence of Serotonin 2 (5-HT2) receptor (Rattus norvegicus) (P14842 whole entry, looked up): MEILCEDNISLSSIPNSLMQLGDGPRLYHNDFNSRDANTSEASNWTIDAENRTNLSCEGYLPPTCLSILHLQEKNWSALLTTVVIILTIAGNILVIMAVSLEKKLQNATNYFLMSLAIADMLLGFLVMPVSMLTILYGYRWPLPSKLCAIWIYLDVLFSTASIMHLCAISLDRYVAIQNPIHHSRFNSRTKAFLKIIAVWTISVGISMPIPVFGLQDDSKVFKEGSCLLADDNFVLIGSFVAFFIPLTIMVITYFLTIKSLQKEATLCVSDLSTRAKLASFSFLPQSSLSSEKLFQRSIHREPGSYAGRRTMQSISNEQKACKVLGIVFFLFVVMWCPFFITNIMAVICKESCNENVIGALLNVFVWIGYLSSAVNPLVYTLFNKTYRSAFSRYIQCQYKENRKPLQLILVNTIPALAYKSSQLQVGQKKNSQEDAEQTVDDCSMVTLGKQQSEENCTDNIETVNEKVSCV
Sequence of Serotonin 2 (5-HT2) receptor (Rattus norvegicus) (P30994 whole entry, looked up): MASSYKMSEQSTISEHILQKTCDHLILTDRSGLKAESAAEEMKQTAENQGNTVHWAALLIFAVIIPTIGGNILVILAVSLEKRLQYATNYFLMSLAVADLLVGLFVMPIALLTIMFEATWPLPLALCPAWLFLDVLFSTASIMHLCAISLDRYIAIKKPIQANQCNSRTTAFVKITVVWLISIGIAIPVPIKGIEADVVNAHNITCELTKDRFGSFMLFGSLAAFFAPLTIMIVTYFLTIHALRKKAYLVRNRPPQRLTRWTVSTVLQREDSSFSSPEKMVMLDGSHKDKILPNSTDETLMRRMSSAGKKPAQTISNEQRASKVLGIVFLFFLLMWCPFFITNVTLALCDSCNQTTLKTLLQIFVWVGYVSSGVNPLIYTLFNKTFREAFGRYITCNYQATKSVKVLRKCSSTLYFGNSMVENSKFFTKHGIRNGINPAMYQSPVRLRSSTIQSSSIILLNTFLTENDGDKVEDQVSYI

[2] = Mutagenicity in Salmonella typhimurium TA100 at 5 ug/plate preincubated for 20 mins followed by addition of top agar and measured after 48 hrs by Ames test; assay type: toxicity; details: salmonella enterica subsp. enterica serovar typhimurium
Mus musculus [3] = test: Antidepressant-like activity in albino Swiss CD-1 mouse assessed as reduction in immobility at 10 mg/kg, ip pretreated for 30 mins and measured after 6 mins by force swim test relative to control; assay type: functional; parameters: scale not given: the % may be the effect or the level left
Mus musculus [4] = test: Anxiolytic activity in albino Swiss CD-1 mouse assessed as increase in number of punished crossings at 5 mg/kg, ip administered 30 mins prior to test by four-plate test relative to control; assay type: functional
Mus musculus [5] = test: Anxiolytic activity in albino Swiss CD-1 mouse assessed as increase in number of punished crossings at 20 mg/kg, ip administered 30 mins prior to test by four-plate test relative to control; assay type: functional
[6] = AUC (0 to t) in CD-1 mouse plasma at 5 mg/kg, ip measured up to 480 mins by LC/ESI-MS/MS analysis; assay type: ADME, organism-based; parameters: dose 5 mg/kg, time < 8 hr, route intraperitoneal
[7] = Terminal half life in CD-1 mouse plasma at 5 mg/kg, ip measured up to 480 mins by LC/ESI-MS/MS analysis; assay type: ADME, organism-based; details: read-out: beta t1/2
[8] = MRT in CD-1 mouse plasma at 5 mg/kg, ip measured up to 480 mins by LC/ESI-MS/MS analysis; assay type: ADME, organism-based
[9] = Cmax in CD-1 mouse plasma at 5 mg/kg, ip measured up to 480 mins by LC/ESI-MS/MS analysis; assay type: ADME, organism-based; parameters: dose 5 mg/kg, route intraperitoneal
[10] = Tmax in CD-1 mouse plasma at 5 mg/kg, ip measured up to 480 mins by LC/ESI-MS/MS analysis; assay type: ADME, organism-based
[11] = Apparent volume of distribution in CD-1 mouse plasma at 5 mg/kg, ip measured up to 480 mins by LC/ESI-MS/MS analysis; assay type: ADME, organism-based
[12] = Apparent clearance in CD-1 mouse plasma at 5 mg/kg, ip measured up to 480 mins by LC/ESI-MS/MS analysis; assay type: ADME, organism-based
[13] = Ratio of drug uptake in CD-1 mouse brain to plasma at 5 mg/kg, ip measured up to 480 mins by LC/ESI-MS/MS analysis; assay type: ADME, organism-based; details: read-out: BPR
[14] = AUC (0 to total) in CD-1 mouse brain at 5 mg/kg, ip measured up to 480 mins by LC/ESI-MS/MS analysis; assay type: ADME, organism-based; details: in vivo, 8 h
[15] = Terminal half life in CD-1 mouse brain at 5 mg/kg, ip measured up to 480 mins by LC/ESI-MS/MS analysis; assay type: ADME, organism-based; details: read-out: beta t1/2
[16] = MRT in CD-1 mouse brain at 5 mg/kg, ip measured up to 480 mins by LC/ESI-MS/MS analysis; assay type: ADME, organism-based
[17] = Cmax in CD-1 mouse brain at 5 mg/kg, ip measured up to 480 mins by LC/ESI-MS/MS analysis; assay type: ADME, organism-based; parameters: dose 5 mg/kg, route intraperitoneal
[18] = Tmax in CD-1 mouse brain at 5 mg/kg, ip measured up to 480 mins by LC/ESI-MS/MS analysis; assay type: ADME, organism-based
[19] = Mutagenicity in Salmonella typhimurium TA100 at 50 ug/plate preincubated for 20 mins followed by addition of top agar and measured after 48 hrs by Ames test; assay type: toxicity; details: salmonella enterica subsp. enterica serovar typhimurium
[20] = Mutagenicity in Salmonella typhimurium TA100 at 250 ug/plate preincubated for 20 mins followed by addition of top agar and measured after 48 hrs by Ames test; assay type: toxicity; details: salmonella enterica subsp. enterica serovar typhimurium
[21] = Mutagenicity in Salmonella typhimurium TA100 at 500 ug/plate preincubated for 20 mins followed by addition of top agar and measured after 48 hrs by Ames test; assay type: toxicity; details: salmonella enterica subsp. enterica serovar typhimurium
[22] = Mutagenicity in Salmonella typhimurium TA98 at 5 ug/plate preincubated for 20 mins followed by addition of top agar and measured after 48 hrs by Ames test; assay type: toxicity; details: salmonella enterica subsp. enterica serovar typhimurium
[23] = Mutagenicity in Salmonella typhimurium TA98 at 50 ug/plate preincubated for 20 mins followed by addition of top agar and measured after 48 hrs by Ames test; assay type: toxicity; details: salmonella enterica subsp. enterica serovar typhimurium
[24] = Mutagenicity in Salmonella typhimurium TA98 at 250 ug/plate preincubated for 20 mins followed by addition of top agar and measured after 48 hrs by Ames test; assay type: toxicity; details: salmonella enterica subsp. enterica serovar typhimurium
[25] = Mutagenicity in Salmonella typhimurium TA98 at 500 ug/plate preincubated for 20 mins followed by addition of top agar and measured after 48 hrs by Ames test; assay type: toxicity; details: salmonella enterica subsp. enterica serovar typhimurium
[26] = Mutagenicity in Salmonella typhimurium TA102 at 5 ug/plate preincubated for 20 mins followed by addition of top agar and measured after 48 hrs by Ames test; assay type: toxicity; details: salmonella enterica subsp. enterica serovar typhimurium
[27] = Mutagenicity in Salmonella typhimurium TA102 at 50 ug/plate preincubated for 20 mins followed by addition of top agar and measured after 48 hrs by Ames test; assay type: toxicity; details: salmonella enterica subsp. enterica serovar typhimurium
[28] = Mutagenicity in Salmonella typhimurium TA102 at 250 ug/plate preincubated for 20 mins followed by addition of top agar and measured after 48 hrs by Ames test; assay type: toxicity; details: salmonella enterica subsp. enterica serovar typhimurium
[29] = Mutagenicity in Salmonella typhimurium TA102 at 500 ug/plate preincubated for 20 mins followed by addition of top agar and measured after 48 hrs by Ames test; assay type: toxicity; details: salmonella enterica subsp. enterica serovar typhimurium
[30] = Drug metabolism in mouse liver microsomes assessed as metabolite formation by measuring retention time at 20 uM after 30 to 60 mins in presence of NADP by UPLC/MS analysis; assay type: ADME, Microsome
[31] = Mutagenicity in Salmonella typhimurium TA98 at 2.5 ug/plate preincubated for 20 mins followed by addition of top agar and measured after 48 hrs by Ames test; assay type: toxicity; details: salmonella enterica subsp. enterica serovar typhimurium
Mus musculus [32] = test: Antidepressant-like activity in albino Swiss CD-1 mouse assessed as reduction in immobility at 5 mg/kg, ip administered 30 mins prior to test and measured after 6 mins by force swim test relative to control; assay type: functional; parameters: scale not given: the % may be the effect or the level left
Mus musculus [33] = test: Antidepressant-like activity in albino Swiss CD-1 mouse assessed as reduction in immobility at 20 mg/kg, ip pretreated for 30 mins and measured after 6 mins by force swim test relative to control; assay type: functional; parameters: scale not given: the % may be the effect or the level left
Mus musculus [34] = test: Anxiolytic activity in Swiss CD-1 mouse assessed as increase in number of punished crossings at 5 mg/kg, ip administered 30 mins prior to test and measured for 60 secs by four-plate test relative to control; assay type: functional
Mus musculus [35] = test: Antidepressant-like activity in Swiss CD-1 mouse assessed as reduction in immobility at 10 mg/kg, ip pretreated for 30 mins and measured after 6 mins by force swim test; assay type: functional, organism-based
[36] = Mutagenicity in Salmonella typhimurium TA100 preincubated for 20 mins followed by addition of top agar and measured after 48 hrs by Ames test; assay type: toxicity; details: salmonella enterica subsp. enterica serovar typhimurium
[37] = target: 5-hydroxytryptamine receptor 2A (Homo sapiens, UniProt P28223); test: Displacement of [3H]-ketanserin from human 5-HT2A receptor expressed in CHO-K1 cell membranes after 60 mins by microbeta scintillation counting analysis
Sequence of 5-hydroxytryptamine receptor 2A (P28223 whole entry): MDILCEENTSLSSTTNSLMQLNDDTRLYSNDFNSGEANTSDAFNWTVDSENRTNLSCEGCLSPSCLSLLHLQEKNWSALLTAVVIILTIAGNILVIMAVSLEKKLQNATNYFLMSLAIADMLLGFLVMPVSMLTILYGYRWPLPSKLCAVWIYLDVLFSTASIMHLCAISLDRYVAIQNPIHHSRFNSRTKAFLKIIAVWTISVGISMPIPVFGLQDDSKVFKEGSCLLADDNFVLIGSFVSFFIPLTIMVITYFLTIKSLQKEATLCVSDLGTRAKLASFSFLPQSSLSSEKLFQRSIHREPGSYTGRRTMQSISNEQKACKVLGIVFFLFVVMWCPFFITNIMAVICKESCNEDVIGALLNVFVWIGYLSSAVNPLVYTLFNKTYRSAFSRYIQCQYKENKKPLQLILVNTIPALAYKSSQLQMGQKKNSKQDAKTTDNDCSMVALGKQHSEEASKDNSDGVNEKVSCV

Mus musculus [38] = test: Antidepressant-like activity in CD-1 mouse assessed as reduction in immobility at 10 mg/kg, ip pretreated for 30 mins and measured after 6 mins by force swim test relative to control; assay type: functional; parameters: scale not given: the % may be the effect or the level left

- inhibition [1]: 39%
SMILES: O=c1c2ccc(Cl)cc2oc2ccc(CN3CCN(CCO)CC3)cc12

- inhibition [1]: 88%
SMILES: O=c1c2ccccc2oc2c(CN3CCN(c4ccccc4)CC3)cccc12

- inhibition [1]: 3%
SMILES: CCOC(=O)N1CCN(Cc2cccc3c(=O)c4ccccc4oc23)CC1

- inhibition [1]: 22%
- AUC(0-t) at 8 h [6]: 481 ng·h/mL
- half-life [7]: 184 min
- MRT [8]: 1.01 h
- Cmax [9]: 468 ng/mL
- Tmax [10]: 15 min
- Vd/F [11]: 43.8 L/kg
- CL/F [12]: 165 mL/min/kg
- Kp at 8 h [13]: 2.86
- AUCt [14]: 82715 ng·min/g
- half-life [15]: 72 min
- MRT [16]: 1.24 h
- Cmax [17]: 936 ng/mL
- Tmax [18]: 30 min
- Retention_time [30]: 4.12 min
SMILES: CCOC(=O)N1CCN(Cc2cccc3c(=O)c4ccc(OC)cc4oc23)CC1.Cl.Cl
- Activity (Mus musculus [3]): 50.2%
- Activity (Mus musculus [4]): 70.1%
- Activity (Mus musculus [5]): 55.3%
- Activity_index [2]: 0.68
- Activity_index [19]: 0.61
- Activity_index [20]: 0.42
- Activity_index [21]: 0.34
- Activity_index [22]: 0.76
- Activity_index [23]: 0.79
- Activity_index [24]: 0.72
- Activity_index [25]: 1
- Activity_index [26]: 0.82
- Activity_index [27]: 0.77
- Activity_index [28]: 1.3
- Activity_index [29]: 0.87

- inhibition [1]: 38%
SMILES: COc1ccc(OCCCN2CCN(Cc3cccc4c(=O)c5ccc(OC)cc5oc34)CC2)cc1

- inhibition [1]: 50%
- AUC(0-t) at 8 h [6]: 334 ng·h/mL
- half-life [7]: 126 min
- MRT [8]: 2.14 h
- Cmax [9]: 136 ng/mL
- Tmax [10]: 15 min
- Vd/F [11]: 41.3 L/kg
- CL/F [12]: 226 mL/min/kg
- Kp at 8 h [13]: 31.6
- AUCt [14]: 633023 ng·min/g
- half-life [15]: 159 min
- MRT [16]: 2.53 h
- Cmax [17]: 3690 ng/mL
- Tmax [18]: 30 min
- Retention_time [30]: 4.64 min
SMILES: CN1CCN(Cc2ccc3oc4ccc(Cl)cc4c(=O)c3c2)CC1
- Activity (Mus musculus [33]): 24.7%
- Activity (Mus musculus [32]): 37.8%
- Activity_index [2]: 1.21
- Activity_index [19]: 0.43
- Activity_index [20]: 2.08
- Activity_index [21]: 2.93
- Activity_index [22]: 1.04
- Activity_index [23]: 0.78
- Activity_index [26]: 1.04
- Activity_index [27]: 0.86
- Activity (Mus musculus [35]): inactive
- Activity_index [36]: Dose-dependent effect

- inhibition [1]: 70%
SMILES: COc1ccccc1N1CCN(Cc2cccc3c(=O)c4ccccc4oc23)CC1

- Ki [37]: 2180 nM
SMILES: COc1ccc2c(=O)c3cccc(CN4CCN(c5ccccc5OC)CC4)c3oc2c1.Cl
- Activity (Mus musculus [38]): 24%

- Ki [37]: 561 nM
SMILES: COc1ccc2c(=O)c3cc(CN4CCN(c5ccccc5OC)CC4)ccc3oc2c1.Cl
- Activity (Mus musculus [38]): 32%

- inhibition [1]: 43%
SMILES: O=c1c2cc(Cl)ccc2oc2ccc(CN3CCN(CCO)CC3)cc12

Further lines, the compound ahead of its results:

SMILES: COc1ccc2c(=O)c3cccc(CN4CCN(Cc5ccccc5)CC4)c3oc2c1
- inhibition [1]: 41%

SMILES: [N-]=[N+]=[N-].[Na+] [SODIUM AZIDE]
- Activity_index [2]: 2.26

SMILES: Nc1ccc([N+](=O)[O-])cc1N
- Activity_index [31]: 10.79

SMILES: O=c1c2ccc(Cl)cc2oc2c(CN3CCN(c4ccccc4)CC3)cccc12
- inhibition [1]: 75%

SMILES: Cl.Cl.O=c1c2ccccc2oc2c(CN3CCN(CCO)CC3)cccc12
- Activity (Mus musculus [3]): 25.6%
- inhibition [1]: 0%
- Activity (Mus musculus [32]): 38.1%
- AUC(0-t) at 8 h [6]: 215 ng·h/mL
- half-life [7]: 48.3 min
- MRT [8]: 0.672 h
- Cmax [9]: 462 ng/mL
- Tmax [10]: 15 min
- Vd/F [11]: 26.9 L/kg
- CL/F [12]: 386 mL/min/kg
- Kp at 8 h [13]: 4.85
- AUCt [14]: 62578 ng·min/g
- half-life [15]: 143 min
- MRT [16]: 0.402 h
- Cmax [17]: 2630 ng/mL
- Tmax [18]: 15 min
- Activity_index [2]: 0.69
- Activity_index [19]: 0.79
- Activity_index [20]: 0.46
- Activity_index [21]: 0.31
- Activity_index [22]: 1.34
- Activity_index [23]: 0.86
- Activity_index [24]: 0.52
- Activity_index [25]: 0.72
- Activity_index [26]: 0.74
- Activity_index [27]: 0.54
- Activity_index [28]: 0.39
- Activity_index [29]: 0.26
- Retention_time [30]: 3.05 min

SMILES: COc1ccc(OCCCN2CCN(Cc3ccc4oc5cc(OC)ccc5c(=O)c4c3)CC2)cc1
- inhibition [1]: 75%

SMILES: Cl.Cl.O=c1c2ccc(Cl)cc2oc2c(CN3CCN(CCO)CC3)cccc12
- Activity (Mus musculus [3]): 30%

SMILES: CN1CCN(Cc2cccc3c(=O)c4ccc(Cl)cc4oc23)CC1.Cl.Cl
- Activity (Mus musculus [33]): 28%
- Activity (Mus musculus [34]): 100%

SMILES: COc1ccc2c(=O)c3cccc(CN4CCN(c5ccccc5)CC4)c3oc2c1
- inhibition [1]: 91%
